Experimental data reported in patent publication US20230303561A1, “PYRIMIDINONE DERIVATIVE, PREPARATION METHOD THEREOF AND USE THEREOF IN RESISTING MYCOBACTERIUM TUBERCULOSIS INFECTION” (INSTITUTE OF MEDICINAL BIOTECHNOLOGY, CHINESE ACADEMY OF …, priority 2020, published 2023).
≈ marks a conversion by molar mass, not a printed value.

Test system: MTB H37Rv
Assay: Bacteriostasis experiment: MIC in 96-well plate, two-fold dilution method
Assay type: cell-based, Mycobacterium tuberculosis
Conditions: for MIC: Mycobacterium tuberculosis, ATCC 27294 / H37Rv, 240 h, read-out: Inhibitory activity against Mycobacterium tuberculosis, MIC, MTB H37Rv; for anti-mycobacterium tuberculosis MIC compared with the positive control drug INH: MTB H37Rv, statement on Table 1 data
[1] = MTB H37Rv (ATCC 27294), 7H9 medium, 37° C., about 10 days

Q: Which “Inhibitory activity against Mycobacterium tuberculosis, MIC, MTB H37Rv” value [1] does the source give for `CSc1nc2c(c(=O)[nH]1)C(c1cccc([N+](=O)[O-])c1)CC(=O)N2` (stereo not drawn) [LSL-9-09, 2-methylmercapto-5-(3-nitrophenyl)-5,6-dihydropyrido[2,3-d]pyrimidin-4,7(3H,8H)-dione] here?
A: 64 µg/mL

Q: `CCCSc1nc2c(c(=O)[nH]1)C(c1ccc(Br)c([N+](=O)[O-])c1)CC(=O)N2` (stereo not drawn) [LSL-11-22, 2-propylmercapto-5-(3-nitro-4-bromophenyl)-5,6-dihydropyrido[2,3-d]pyrimidin-4,7(3H,8H)-dione] was tested. Which MIC [1] did it give?
A: 1 µg/mL (≈ 2.28 µM)

Q: Which MIC [1] does the source give for `CCCSc1nc2c(c(=O)[nH]1)C(C1CCCC1)CC(=O)N2` (stereo not drawn) [LSL-11-31, 2-propylmercapto-5-cyclopentyl-5,6-dihydropyrido[2,3-d]pyrimidin-4,7(3H,8H)-dione] here?
A: 16 µg/mL (≈ 52 µM)

Q: For `CCCSc1nc2c(c(=O)[nH]1)C(c1cccnc1)CC(=O)N2` (stereo not drawn) [LSL-11-28, 2-propylmercapto-5-(pyridin-3-yl)-5,6-dihydropyrido[2,3-d]pyrimidin-4,7(3H,8H)-dione], which MIC [1] is on record?
A: 2 µg/mL (≈ 6.32 µM)

Q: Which “anti-mycobacterium tuberculosis MIC compared with the positive control drug INH” value does the source give for `CCCOc1ccc(C2CC(=O)Nc3nc(SCCC)[nH]c(=O)c32)c(O)c1` (stereo not drawn) [LSL-9-29, 2-propylmercapto-5-(2-hydroxy-4-propoxyphenyl)-5,6-dihydropyrido[2,3-d]pyrimidin-4,7(3H,8H)-dione] here?
A: equivalent to that of the positive control drug INH

Q: What about the MIC [1] of the same molecule?
A: 0.5 µg/mL (≈ 1.28 µM)

Q: How did the MIC [1] turn out when `CCCSc1nc2c(c(=O)[nH]1)C(c1ccc(C)cc1)CC(=O)N2` (stereo not drawn) [LSL-9-37, 2-propylmercapto-5-(4-methylphenyl)-5,6-dihydropyrido[2,3-d]pyrimidin-4,7(3H,8H)-dione] was run?
A: 2 µg/mL (≈ 6.07 µM)

Q: With `CCCSc1nc2c(c(=O)[nH]1)C(c1ccc3c(c1)CCO3)CC(=O)N2` (stereo not drawn) [LSL-11-33, 2-propylmercapto-5-(2,3-dihydrobenzofuran-5-yl)-5,6-dihydropyrido[2,3-d]pyrimidin-4,7(3H,8H)-dione] as the molecule, how does the MIC [1] read?
A: 2 µg/mL (≈ 5.6 µM)

Q: With `COc1ccc(C2CC(=O)Nc3nc(SC)[nH]c(=O)c32)c(O)c1` (stereo not drawn) [LSL-9-01, 2-methylmercapto-5-(2-hydroxy-4-methoxyphenyl)-5,6-dihydropyrido[2,3-d]pyrimidin-4,7(3H,8H)-dione] as the molecule, how does the MIC [1] read?
A: 8 µg/mL (≈ 24 µM)

Q: Which MIC [1] does the source give for `CCCSc1nc2c(c(=O)[nH]1)C(c1ccc(OC)nc1)CC(=O)N2` (stereo not drawn) [LSL-11-35, 2-propylmercapto-5-(6-methoxypyridin-3-yl)-5,6-dihydropyrido[2,3-d]pyrimidin-4,7(3H,8H)-dione] here?
A: 1 µg/mL (≈ 2.89 µM)

Q: With `CCCSc1nc2c(c(=O)[nH]1)C(c1ccc(SC)cc1)CC(=O)N2` (stereo not drawn) [LSL-11-21, 2-propylmercapto-5-(4-methylthiophenyl)-5,6-dihydropyrido[2,3-d]pyrimidin-4,7(3H,8H)-dione] as the molecule, how does the “anti-mycobacterium tuberculosis MIC compared with the positive control drug INH” value read?
A: equivalent to that of the positive control drug INH

Q: And the MIC [1]?
A: 0.5 µg/mL (≈ 1.38 µM)

Q: `CCCSc1nc2c(c(=O)[nH]1)C(c1cccc(OC)c1)CC(=O)N2` (stereo not drawn) [LSL-9-47, 2-propylmercapto-5-(3-methoxyphenyl)-5,6-dihydropyrido[2,3-d]pyrimidin-4,7(3H,8H)-dione] was tested. Which MIC [1] did it give?
A: 4 µg/mL (≈ 11.6 µM)

Q: With `CCCSc1nc2c(c(=O)[nH]1)C(c1ccc(OC(F)(F)F)cc1)CC(=O)N2` (stereo not drawn) [LSL-9-35, 2-propylmercapto-5-(4-trifluoromethoxyphenyl)-5,6-dihydropyrido[2,3-d]pyrimidin-4,7(3H,8H)-dione] as the molecule, how does the MIC [1] read?
A: 64 µg/mL (≈ 160 µM)

Q: How did the MIC [1] turn out when `CCCSc1nc2c(c(=O)[nH]1)C(c1ccc3nccnc3c1)CC(=O)N2` (stereo not drawn) [LSL-11-34, 2-propylmercapto-5-(quinoxalin-6-yl)-5,6-dihydropyrido[2,3-d]pyrimidin-4,7(3H,8H)-dione] was run?
A: 4 µg/mL (≈ 10.9 µM)

Q: For `CCCSc1nc2c(c(=O)[nH]1)C(c1ccc(OC)c([N+](=O)[O-])c1)CC(=O)N2` (stereo not drawn) [LSL-9-40, 2-propylmercapto-5-(4-methoxy-3-nitrophenyl)-5,6-dihydropyrido[2,3-d]pyrimidin-4,7(3H,8H)-dione], which MIC [1] is on record?
A: 4 µg/mL (≈ 10.2 µM)

Q: With `CCCSc1nc2c(c(=O)[nH]1)C(c1cccc3ncccc13)CC(=O)N2` (stereo not drawn) [LSL-10-07, 2-propylmercapto-5-(quinolin-5-yl)-5,6-dihydropyrido[2,3-d]pyrimidin-4,7(3H,8H)-dione] as the molecule, how does the MIC [1] read?
A: 16 µg/mL (≈ 43.7 µM)

Q: With `CCCSc1nc2c(c(=O)[nH]1)C(c1ccc(C#N)cc1)CC(=O)N2` (stereo not drawn) [LSL-10-01, 2-propylmercapto-5-(4-cyanophenyl)-5,6-dihydropyrido[2,3-d]pyrimidin-4,7(3H,8H)-dione] as the molecule, how does the MIC [1] read?
A: 16 µg/mL (≈ 47 µM)

Q: Which MIC [1] does the source give for `CCCSc1nc2c(c(=O)[nH]1)C(c1ccc(N3CCOCC3)cc1)CC(=O)N2` (stereo not drawn) [LSL-10-43, 2-propylmercapto-5-(4-morpholinophenyl)-5,6-dihydropyrido[2,3-d]pyrimidin-4,7(3H,8H)-dione] here?
A: 1 µg/mL (≈ 2.5 µM)

Q: For `CCCSc1nc2c(c(=O)[nH]1)C(c1ccc(N3CCCCC3)cc1)CC(=O)N2` (stereo not drawn) [LSL-10-48, 2-propylmercapto-5-(4-(piperidin-1-yl)phenyl)-5,6-dihydropyrido[2,3-d]pyrimidin-4,7(3H,8H)-dione], which MIC [1] is on record?
A: 2 µg/mL (≈ 5.02 µM)

Q: How did the MIC [1] turn out when `C=CCSc1nc2c(c(=O)[nH]1)C(c1ccc(OC)c(OC)c1)CC(=O)N2` (stereo not drawn) [LSL-9-17, 2-allylmercapto-5-(3,4-dimethoxyphenyl)-5,6-dihydropyrido[2,3-d]pyrimidin-4,7(3H,8H)-dione] was run?
A: 8 µg/mL (≈ 21.4 µM)

Q: `CCCSc1nc2c(c(=O)[nH]1)C(c1ccc(OC)cc1[N+](=O)[O-])CC(=O)N2` (stereo not drawn) [LSL-9-41, 2-propylmercapto-5-(4-methoxy-2-nitrophenyl)-5,6-dihydropyrido[2,3-d]pyrimidin-4,7(3H,8H)-dione] was tested. Which “anti-mycobacterium tuberculosis MIC compared with the positive control drug INH” value did it give?
A: equivalent to that of the positive control drug INH

Q: And the MIC [1]?
A: 0.125 µg/mL (≈ 0.32 µM)

Q: Which MIC [1] does the source give for `CCCSc1nc2c(c(=O)[nH]1)C(c1ccccc1OC)CC(=O)N2` (stereo not drawn) [LSL-9-48, 2-propylmercapto-5-(2-methoxyphenyl)-5,6-dihydropyrido[2,3-d]pyrimidin-4,7(3H,8H)-dione] here?
A: 16 µg/mL (≈ 46.3 µM)

Q: `CCCSc1nc2c(c(=O)[nH]1)C(c1ccncc1)CC(=O)N2` (stereo not drawn) [LSL-11-29, 2-propylmercapto-5-(pyridin-4-yl)-5,6-dihydropyrido[2,3-d]pyrimidin-4,7(3H,8H)-dione] was tested. Which MIC [1] did it give?
A: 8 µg/mL (≈ 25.3 µM)

Q: With `CCCSc1nc2c(c(=O)[nH]1)C(C1CCCCC1)CC(=O)N2` (stereo not drawn) [LSL-11-30, 2-propylmercapto-5-cyclohexyl-5,6-dihydropyrido[2,3-d]pyrimidin-4,7(3H,8H)-dione] as the molecule, how does the MIC [1] read?
A: 16 µg/mL (≈ 49.8 µM)

Q: `CCCSc1nc2c(c(=O)[nH]1)C(c1ccc(N)cc1)CC(=O)N2` (stereo not drawn) [LSL-9-44, 2-propylmercapto-5-(4-aminophenyl)-5,6-dihydropyrido[2,3-d]pyrimidin-4,7(3H,8H)-dione] was tested. Which MIC [1] did it give?
A: 16 µg/mL (≈ 48.4 µM)

Q: `CCCSc1nc2c(c(=O)[nH]1)C(c1ccc(Cl)c([N+](=O)[O-])c1)CC(=O)N2` (stereo not drawn) [LSL-7-48, 2-propylmercapto-5-(3-nitro-4-chlorophenyl)-5,6-dihydropyrido[2,3-d]pyrimidin-4,7(3H,8H)-dione] was tested. Which MIC [1] did it give?
A: 2 µg/mL (≈ 5.07 µM)

Q: With `CCCSc1nc2c(c(=O)[nH]1)C(c1ccnc3ccccc13)CC(=O)N2` (stereo not drawn) [LSL-10-06, 2-propylmercapto-5-(quinolin-4-yl)-5,6-dihydropyrido[2,3-d]pyrimidin-4,7(3H,8H)-dione] as the molecule, how does the MIC [1] read?
A: 4 µg/mL (≈ 10.9 µM)

Q: How did the MIC [1] turn out when `CCCSc1nc2c(c(=O)[nH]1)C(c1ccccn1)CC(=O)N2` (stereo not drawn) [LSL-11-26, 2-propylmercapto-5-(pyridin-2-yl)-5,6-dihydropyrido[2,3-d]pyrimidin-4,7(3H,8H)-dione] was run?
A: 2 µg/mL (≈ 6.32 µM)

Q: With `CCCSc1nc2c(c(=O)[nH]1)C(c1ccc(S(C)(=O)=O)cc1)CC(=O)N2` (stereo not drawn) [LSL-11-20, 2-propylmercapto-5-(4-methanesulfonylphenyl)-5,6-dihydropyrido[2,3-d]pyrimidin-4,7(3H,8H)-dione] as the molecule, how does the MIC [1] read?
A: 1 µg/mL (≈ 2.54 µM)

Q: For `CCCSc1nc2c(c(=O)[nH]1)C(c1ccc(N3CCSCC3)cc1)CC(=O)N2` (stereo not drawn) [LSL-10-50, 2-propylmercapto-5-(4-thiomorpholinophenyl)-5,6-dihydropyrido[2,3-d]pyrimidin-4,7(3H,8H)-dione], which MIC [1] is on record?
A: 1 µg/mL (≈ 2.4 µM)

Q: For `CCCSc1nc2[nH]c(=O)cc(-c3ccc(OC)cc3)c2c(=O)[nH]1` [LSL-11-09, 2-propylmercapto-5-(4-methoxyphenyl)-pyrido[2,3-d]pyrimidin-4,7(3H,8H)-dione], which “anti-mycobacterium tuberculosis MIC compared with the positive control drug INH” value is on record?
A: equivalent to that of the positive control drug INH

Q: And the MIC [1]?
A: 0.25 µg/mL (≈ 0.728 µM)

Q: For `CCCSc1nc2c(c(=O)[nH]1)C(c1cc(OC)c(OC)c(OC)c1)CC(=O)N2` (stereo not drawn) [LSL-7-44, 2-propylmercapto-5-(3,4,5-trimethoxyphenyl)-5,6-dihydropyrido[2,3-d]pyrimidin-4,7(3H,8H)-dione], which MIC [1] is on record?
A: 16 µg/mL (≈ 39.5 µM)

Q: Which MIC [1] does the source give for `CCCSc1nc2c(c(=O)[nH]1)C(c1ccc(Br)cc1)CC(=O)N2` (stereo not drawn) [LSL-9-26, 2-propylmercapto-5-(4-bromophenyl)-5,6-dihydropyrido[2,3-d]pyrimidin-4,7(3H,8H)-dione] here?
A: 2 µg/mL (≈ 5.07 µM)

Q: Which MIC [1] does the source give for `CCCSc1nc2c(c(=O)[nH]1)C(c1ccc(OCc3ccccc3)cc1)CC(=O)N2` (stereo not drawn) [LSL-9-31, 2-propylmercapto-5-(4-benzyloxyphenyl)-5,6-dihydropyrido[2,3-d]pyrimidin-4,7(3H,8H)-dione] here?
A: 16 µg/mL (≈ 38 µM)

Q: For `CCCOc1ccc(C2CC(=O)Nc3nc(SC)[nH]c(=O)c32)cc1` (stereo not drawn) [LSL-7-36, 2-methylmercapto-5-(4-propoxyphenyl)-5,6-dihydropyrido[2,3-d]pyrimidin-4,7(3H,8H)-dione], which MIC [1] is on record?
A: 32 µg/mL (≈ 92.6 µM)

Q: `CCCSc1nc2c(c(=O)[nH]1)C(c1cccc(O)c1)CC(=O)N2` (stereo not drawn) [LSL-9-49, 2-propylmercapto-5-(3-hydroxyphenyl)-5,6-dihydropyrido[2,3-d]pyrimidin-4,7(3H,8H)-dione] was tested. Which MIC [1] did it give?
A: 16 µg/mL (≈ 48.3 µM)
